Assay results published in article PMC4956231, “Molecular Mechanisms for Drug Hypersensitivity Induced by the Malaria Parasite’s Chloroquine Resistance Transporter” (PLoS Pathogens, 2016).

What was measured:
P. falciparum 106/1 = settings: 106/1 (76K-PfCRT^K1); IC50 in line divided by IC50 in drug-sensitive reference strain; cited from earlier work
P. falciparum line K1AM = settings: K1AM (163R,356V-PfCRT^K1); IC50 in line divided by IC50 in drug-sensitive reference strain; cited from earlier work
76I,369F-PfCRT^K1 = 76I,369F-PfCRT^K1 (Plasmodium falciparum, UniProt Q9N623, A220S/K76I/M74I/N326S/N75E/Q271E/R371I/V369F); experiment: Inhibition of PfCRT-mediated [3H]CQ transport in oocytes; format: cell-based; settings: via 76I,369F-PfCRT^K1 in oocytes
Experimental: For each treatment, 10 oocytes were transferred to a 5 mL polystyrene round bottom tube (Falcon) and washed twice with 3.5 mL of ND96 buffer, with the residual buffer removed by pipette. […] The assay was terminated by removing the reaction buffer with a pipette and washing the oocytes twice with 3.5 mL of ice-cold ND96 buffer. Each oocyte was transferred to a separate well of a white 96-well plate (NUNC or PerkinElmer), incubated overnight at room temperature in 30 μL of 10% SDS, and mixed on an orbital shaker the following day for approximately 5 min. The lysed oocyte was then combined with 150 μL of MicroScint-40 microscintillant (PerkinElmer), the plate covered with a TopSeal-A (PerkinElmer), and the radioactivity measured with a PerkinElmer MicroBeta^2 microplate liquid scintillation analyzer.
The IC50 values presented in Fig 3A were determined in SigmaPlot by a least-squares fit of the equation y = y min + [(y max—y min)/(1 + ([inhibitor]/IC50)c] to the data, where y is PfCRT-mediated CQ transport, y min and y max are the minimum and maximum values of y, and c is a fitted constant. PfCRT-mediated CQ transport was calculated by subtracting the uptake measured in the control oocytes (oocytes expressing 76K PfCRT^K1) from that in oocytes expressing 76I-PfCRT^K1 or 76I,369F-PfCRT^K1.

Sequence of 76I,369F-PfCRT^K1 (Q9N623 whole entry A220S/K76I/M74I/N326S/N75E/Q271E/R371I/V369F): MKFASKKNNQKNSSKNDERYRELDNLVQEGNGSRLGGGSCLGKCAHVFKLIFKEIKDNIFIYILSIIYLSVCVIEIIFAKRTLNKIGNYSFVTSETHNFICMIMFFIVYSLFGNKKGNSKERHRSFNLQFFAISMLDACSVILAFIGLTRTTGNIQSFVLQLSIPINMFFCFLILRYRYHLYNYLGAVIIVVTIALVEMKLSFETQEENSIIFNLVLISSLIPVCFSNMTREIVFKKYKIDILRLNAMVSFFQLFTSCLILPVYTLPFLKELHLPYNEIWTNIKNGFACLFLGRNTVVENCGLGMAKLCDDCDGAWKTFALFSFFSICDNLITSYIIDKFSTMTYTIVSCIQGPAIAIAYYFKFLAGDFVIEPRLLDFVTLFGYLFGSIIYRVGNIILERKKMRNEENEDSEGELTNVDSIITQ

SMILES | Drug susceptibility (In vitro resistance index) (P. falciparum 106/1) | Drug susceptibility (In vitro resistance index) (P. falciparum line K1AM) | IC50 (76I,369F-PfCRT^K1) [µM]
CCN(CC)CCCC(C)Nc1ccnc2cc(Cl)ccc12 (stereo not drawn) [CQ, chloroquine] | 1.10 ± 0.06 | 0.95 | –
NC12CC3CC(CC(C3)C1)C2 [amantadine] | – | – | 174 ± 26
